One may read the logD as lipophilicity at a set pH, counting ionised and neutral species. Lower therefore signals a more hydrophilic compound. Usually half-life stands for how long it takes for the measured level to halve. The low end stands for rapid decline, the high end for slow decline. The term clearance denotes the rate of elimination divided by the concentration. Higher therefore signals a high capacity for elimination. What is called bioavailability is dose-corrected exposure relative to a reference, in per cent. A lower bioavailability goes with little systemic uptake.

In brackets after ≈: the same amount, converted by molar mass. A value given as a limit tells only on which side of the number the result lay.

A short description of data set [1]: Kinetic solubility of compound. Format: physicochemical. The note with it: read-out: Kinetic_solubility.
A short description of data set [2]: Lipophilicity, log D of the compound at pH 7.4. The note with it: buffer. Type of data set: physicochemical.
A short description of data set [3]: Metabolic stability in human liver microsome assessed as hepatic clearance. The note with it: liver microsomes. Type of data set: ADME.
Data set [4] in a line: Metabolic stability in rat liver microsome assessed as hepatic clearance. The note with it: liver microsomes. Format: ADME. (In general: Microsomes from liver hold many membrane-bound enzymes, among them those of drug oxidation.)
Data set [5] in a line: Half life in rat at 1 mg/kg, iv by LC-MS/MS analysis. The note with it: in vivo. Type of data set: ADME, organism-based.
The nature of data set [6]: Clearance in rat at 1 mg/kg, iv by LC-MS/MS analysis. Format: ADME, organism-based. The note with it: in vivo.
Data set [7] in a line: Oral bioavailability in rat at 3 mg/kg by LC-MS/MS analysis. Type of data set: ADME, organism-based. The note with it: in vivo.
A short description of data set [8]: Volume of distribution at steady state in rat at 1 mg/kg, iv by LC-MS/MS analysis. Format: ADME, organism-based. The note with it: in vivo, read-out: Vdss.

Take `O=C(COc1ccc(Cl)cc1)N[C@H]1CC[C@H](NC(=O)COc2ccc(Cl)cc2)CC1`: in data set [1], the solubility kinetic is < 1 µM. Further, the logD in data set [2] came out at 3.7. In the case of `O=C(NC12CC(c3nnc([C@H]4C[C@@H](OC(F)(F)F)C4)o3)(C1)C2)c1nc2cc(Cl)ccc2o1`, the CLhep predicted in data set [3] was < 6 mL/min/kg.

For the compound `O=C(COc1ccc(C(F)(F)F)cc1)NC12CC(c3nnc([C@H]4C[C@@H](OC(F)(F)F)C4)o3)(C1)C2`, the CLhep predicted was < 6 mL/min/kg in data set [3] and < 17 mL/min/kg in data set [4]. The same compound had a half-life in data set [5] of 22.9 h. Also, in data set [6], the clearance came to 0.4 mL/min/kg. In data set [7], this compound showed a bioavailability of 39%. Further, in data set [8], the Vd was 0.26 L/kg. With `O=C(COc1ccc(Cl)cc1)NC12CC(NC(=O)COC3CCC3)(C1)C2`, the solubility kinetic in data set [1] turned out to be 141 µM (≈ 53.4 µg/mL). For the same compound, the logD in data set [2] turned out to be 2.9. As to `O=C(COc1ccc(Cl)cc1)NC12CCC(NC(=O)COc3ccc(Cl)cc3)(CC1)C2`, the solubility kinetic in data set [1] was < 1 µM. Further, the logD in data set [2] turned out to be 4.6.

On to `O=C(COc1ccc(Cl)c(F)c1)NC12CC(N3C[C@H]([C@H]4C[C@@H](OC(F)(F)F)C4)OC3=O)(C1)C2`, for which the CLhep predicted in data set [3] is 15 mL/min/kg.

Turning to `O=C(NC12CC(c3nnc([C@H]4C[C@@H](OC(F)(F)F)C4)o3)(C1)C2)c1cnc2cc(Cl)ccc2c1`, in data set [3], the CLhep predicted was 11 mL/min/kg. Take `O=C(COc1ccc(Cl)cc1)NC12CC(NC(=O)COC3CC3)(C1)C2`: the solubility kinetic in data set [1] stood at 181 µM (≈ 66 µg/mL). In data set [2], this compound showed a logD of 2.6. Taken in the same sequence, the figures for `O=C(COCC1CC1)NC12CC(NC(=O)COc3ccc(Cl)cc3)(C1)C2` were 184 µM (≈ 69.7 µg/mL) and 2.9.

In the case of `O=C(NC12CC(c3nnc([C@H]4C[C@@H](OC(F)(F)F)C4)o3)(C1)C2)C1CCc2cc(Cl)ccc2O1` (stereo partly drawn), the CLhep predicted in data set [3] is 12 mL/min/kg. With `O=C(COc1ccc(Cl)c(F)c1)NC12CC(NC(=O)CO[C@H]3C[C@H](C(F)(F)F)C3)(C1)C2`, the CLhep predicted in data set [3] is 13 mL/min/kg. The compound also came in with a logD in data set [2] of 3.6.

Take `O=C(COc1ccc(Cl)cc1)NC1CCN(C(=O)COc2ccc(Cl)cc2)CC1`: in data set [1], the solubility kinetic turned out to be 5 µM (≈ 2.19 µg/mL). The compound further registered a logD in data set [2] of 3.3.

Take `O=C(COc1ccc(Cl)cc1)NC12CCC(NC(=O)COc3ccc(Cl)cc3)(CC1)CC2`: the solubility kinetic in data set [1] was < 1 µM. In data set [2], this compound had a logD of 4.5. The like results for `O=C(COc1ccc(Cl)cc1)NC12CC(NC(=O)COC3CCCC3)(C1)C2` were, in that order, 34 µM (≈ 13.4 µg/mL) and 3.4. Taken in the same sequence, the figures for `O=C(COc1ccc(Cl)cc1)NC12CC(NC(=O)COC3CCOC3)(C1)C2` (stereo not drawn) were 194 µM (≈ 76.6 µg/mL) and 1.8.

Regarding `O=C(COc1ccc(Cl)cc1)NC12CC(NC(=O)COc3ccc(Cl)cc3)(C1)C2`, the solubility kinetic in data set [1] turned out to be 2 µM (≈ 0.871 µg/mL). Further, the logD in data set [2] came to 2.9.

Regarding `O=C(COc1ccc(Cl)c(F)c1)NC12CC(c3cnn([C@H]4C[C@@H](OC(F)(F)F)C4)n3)(C1)C2`, the CLhep predicted in data set [3] is < 6 mL/min/kg. As for `OC(COC1CCC(Cl)C(F)C1)NC12CC(NC(O)CO[C@H]3C[C@@H](C(F)(F)F)C3)(C1)C2` (stereo partly drawn), in data set [3], the CLhep predicted was 13 mL/min/kg. This compound gave a logD in data set [2] of 3.1. In the case of `O=C(COc1ccc(F)cc1)NC12CC(c3nnc([C@H]4C[C@@H](OC(F)(F)F)C4)o3)(C1)C2`, the CLhep predicted in data set [3] is < 6 mL/min/kg. Consider `O=C(COCC1CCC1)NC12CC(NC(=O)COc3ccc(Cl)cc3)(C1)C2`, for which the solubility kinetic in data set [1] came out at 19 µM (≈ 7.46 µg/mL). The compound also registered a logD in data set [2] of 3.6.

Values taken from ChEMBL document CHEMBL5543116, “Discovery of DNL343: A Potent, Selective, and Brain-Penetrant eIF2B Activator Designed for the Treatment of Neurodegenerative Diseases” (J Med Chem, 2024).
